Data as given in publication PMC10108266, “Pharmacokinetic characteristics of golidocitinib, a highly selective JAK1 inhibitor, in healthy adult participants” (Frontiers in Immunology, 2023).

Tests used:
[1] = Permeability in vitro; assay type: in vitro ADME
[2] = molecular target: P-glycoprotein (P-gp) (Homo sapiens, UniProt P08183); assay: In vitro P-gp substrate experiments; assay type: in vitro ADME; settings: active transport saturable at high concentrations
[3] = Safety (TEAEs), JACKPOT2 MAD cohorts; assay type: in vivo, human; settings: n = 6
Source text: Safety assessments included monitoring of adverse events/serious adverse events, clinical safety laboratory tests (clinical chemistry, hematology, coagulation, and urinalysis tests), 12-lead ECG, vital signs (blood pressure, pulse rate, and respiratory rate), and pulmonary function. All adverse events were coded using the Medical Dictionary for Regulatory Activities (MedDRA), version 22.0. The CTCAE 5.0 was used to define the intensity of AEs.

P-glycoprotein (P-gp), sequence (P08183 whole entry): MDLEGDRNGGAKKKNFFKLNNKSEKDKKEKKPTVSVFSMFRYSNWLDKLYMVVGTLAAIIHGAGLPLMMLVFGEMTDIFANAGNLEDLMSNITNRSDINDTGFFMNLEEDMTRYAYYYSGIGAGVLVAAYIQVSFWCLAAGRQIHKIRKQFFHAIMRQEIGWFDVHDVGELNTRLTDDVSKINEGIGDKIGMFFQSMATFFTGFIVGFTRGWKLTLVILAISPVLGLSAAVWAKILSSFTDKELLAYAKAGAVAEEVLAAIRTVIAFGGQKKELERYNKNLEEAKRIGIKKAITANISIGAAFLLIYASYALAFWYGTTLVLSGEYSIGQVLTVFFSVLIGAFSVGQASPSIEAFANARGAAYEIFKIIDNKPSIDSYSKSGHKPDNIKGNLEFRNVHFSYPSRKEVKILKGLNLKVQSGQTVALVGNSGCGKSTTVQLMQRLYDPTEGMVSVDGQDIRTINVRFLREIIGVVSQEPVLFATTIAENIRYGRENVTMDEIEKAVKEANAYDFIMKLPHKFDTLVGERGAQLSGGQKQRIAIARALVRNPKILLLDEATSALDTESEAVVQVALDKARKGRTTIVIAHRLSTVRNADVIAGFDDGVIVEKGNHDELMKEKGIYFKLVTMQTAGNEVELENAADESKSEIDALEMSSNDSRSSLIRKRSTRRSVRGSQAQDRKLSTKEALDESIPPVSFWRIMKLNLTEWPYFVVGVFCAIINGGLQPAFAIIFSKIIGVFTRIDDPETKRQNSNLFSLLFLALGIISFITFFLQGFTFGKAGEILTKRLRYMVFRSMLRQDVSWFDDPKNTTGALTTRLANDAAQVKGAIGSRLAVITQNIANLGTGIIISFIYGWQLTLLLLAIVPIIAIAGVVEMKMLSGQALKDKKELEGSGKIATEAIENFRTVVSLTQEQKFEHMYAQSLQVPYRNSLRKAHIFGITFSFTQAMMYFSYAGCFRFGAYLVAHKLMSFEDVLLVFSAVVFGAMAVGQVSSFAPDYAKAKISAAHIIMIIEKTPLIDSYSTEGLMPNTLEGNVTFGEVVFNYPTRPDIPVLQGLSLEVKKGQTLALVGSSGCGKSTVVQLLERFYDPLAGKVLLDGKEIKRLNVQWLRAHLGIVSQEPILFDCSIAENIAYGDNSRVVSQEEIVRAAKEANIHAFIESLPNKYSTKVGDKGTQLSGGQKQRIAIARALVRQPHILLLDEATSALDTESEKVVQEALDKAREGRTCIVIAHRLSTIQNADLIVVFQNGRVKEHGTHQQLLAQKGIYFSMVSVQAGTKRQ

COc1nn(C)cc1Nc1nccc(-c2c[nH]c3c(NC(=O)[C@@H](C)N4CCN(C)CC4)cccc23)n1 [golidocitinib, (2R)-N-[3-[2-[(3-Methoxy-1-methyl-pyrazol-4-yl)amino]pyrimidin-4-yl]-1H-indol-7-yl]-2-(4-methylpiperazin-1-yl)propenamide]
permeability [1]: high permeability
P-gp substrate status [2]: P-glycoprotein (P-gp) substrate
Abdominal pain upper ([3]; 25 mg once daily 14 days): 0 n (%)
Blood and Lymphatic Disorders ([3]; 25 mg once daily 14 days): 1 (16.7%) n (%)
Constipation ([3]; 25 mg once daily 14 days): 1 (16.7%) n (%)
Dry throat ([3]; 25 mg once daily 14 days): 0 n (%)
Gastrointestinal disorders ([3]; 25 mg once daily 14 days): 1 (16.7%) n (%)
Headache ([3]; 25 mg once daily 14 days): 0 n (%)
Injury, poisoning and procedural complications ([3]; 25 mg once daily 14 days): 0 n (%)
Leukopenia ([3]; 25 mg once daily 14 days): 0 n (%)
Nausea ([3]; 25 mg once daily 14 days): 0 n (%)
Nervous System Disorders ([3]; 25 mg once daily 14 days): 0 n (%)
Neutropenia ([3]; 25 mg once daily 14 days): 1 (16.7%) n (%)
Respiratory, Thoracic and Mediastinal Disorders ([3]; 25 mg once daily 14 days): 0 n (%)
Reticulocytopenia ([3]; 25 mg once daily 14 days): 0 n (%)
Skin Laceration ([3]; 25 mg once daily 14 days): 0 n (%)
Subjects with at least one TEAE ([3]; 25 mg once daily 14 days): 2 (33.3%) n (%)
Abdominal pain upper ([3]; 50 mg once daily 14 days): 1 (16.7%) n (%)
Blood and Lymphatic Disorders ([3]; 50 mg once daily 14 days): 0 n (%)
Constipation ([3]; 50 mg once daily 14 days): 1 (16.7%) n (%)
Dry throat ([3]; 50 mg once daily 14 days): 0 n (%)
Gastrointestinal disorders ([3]; 50 mg once daily 14 days): 1 (16.7%) n (%)
Headache ([3]; 50 mg once daily 14 days): 1 (16.7%) n (%)
Injury, poisoning and procedural complications ([3]; 50 mg once daily 14 days): 0 n (%)
Leukopenia ([3]; 50 mg once daily 14 days): 0 n (%)
Nausea ([3]; 50 mg once daily 14 days): 1 (16.7%) n (%)
Nervous System Disorders ([3]; 50 mg once daily 14 days): 1 (16.7%) n (%)
Neutropenia ([3]; 50 mg once daily 14 days): 0 n (%)
Respiratory, Thoracic and Mediastinal Disorders ([3]; 50 mg once daily 14 days): 0 n (%)
Reticulocytopenia ([3]; 50 mg once daily 14 days): 0 n (%)
Skin Laceration ([3]; 50 mg once daily 14 days): 0 n (%)
Subjects with at least one TEAE ([3]; 50 mg once daily 14 days): 1 (16.7%) n (%)
Abdominal pain upper ([3]; 100 mg once daily 14 days): 0 n (%)
Blood and Lymphatic Disorders ([3]; 100 mg once daily 14 days): 3 (50.0%) n (%)
Constipation ([3]; 100 mg once daily 14 days): 0 n (%)
Dry throat ([3]; 100 mg once daily 14 days): 0 n (%)
Gastrointestinal disorders ([3]; 100 mg once daily 14 days): 0 n (%)
Headache ([3]; 100 mg once daily 14 days): 1 (16.7%) n (%)
Injury, poisoning and procedural complications ([3]; 100 mg once daily 14 days): 0 n (%)
Leukopenia ([3]; 100 mg once daily 14 days): 2 (33.3%) n (%)
Nausea ([3]; 100 mg once daily 14 days): 0 n (%)
Nervous System Disorders ([3]; 100 mg once daily 14 days): 1 (16.7%) n (%)
Neutropenia ([3]; 100 mg once daily 14 days): 3 (50.0%) n (%)
Respiratory, Thoracic and Mediastinal Disorders ([3]; 100 mg once daily 14 days): 0 n (%)
Reticulocytopenia ([3]; 100 mg once daily 14 days): 1 (16.7%) n (%)
Skin Laceration ([3]; 100 mg once daily 14 days): 0 n (%)
Subjects with at least one TEAE ([3]; 100 mg once daily 14 days): 3 (50.0%) n (%)
